Experimental data published in patent US10550125B2, “Prodrugs of imidazotriazine compounds as CK2 inhibitors” (BRISTOL-MYERS SQUIBB COMPANY, priority 2015, dated 2020).
≈ marks a conversion by molar mass, not a printed value. Like-named read-outs stand apart in the source and are kept apart here.

Key:
[1] = Single-dose pharmacokinetics in rats (oral bioavailability); assay type: in vivo; details: for Oral Bioavailability in Rats, % F: male Sprague-Dawley rats, ratio of dose-normalized AUC, oral vs IV; for Prodrug bioavailability in Rats, % F: dose-normalized AUC of parent (Example 1) after oral prodrug vs IV infusion of parent
Protocol: In a study to determine oral bioavailability in male Sprague-Dawley rats, two groups of animals (N=3 per group, 300 to 350 g) are used. One group (non-fasted) receives the compound by IV infusion (over 10 minutes) via a jugular vein and one group (fasted) receives drug by oral gavage. Serial blood samples (˜0.3 mL) are collected from the jugular vein into tri-potassium ethylenediaminetetraacetic acid (K3EDTA)-containing tubes at 0.167 (for IV), 0.25, 0.5, 1, 3, 5, 7, and 24 hours, post dose and then centrifuged at 4° C. (1500 to 2000×g) to obtain plasma, which is stored at −20° C. until analysis by LC-MS/MS.
The pharmacokinetic parameters were obtained by non-compartmental analysis of plasma concentration (determined by LC/MS/MS) vs. time data (ThermoKinetica Software version 4.4.1). The peak concentration (Cmax) and time for Cmax, Tmax, were recorded directly from experimental observations. The area under the curve from time zero to the last sampling time (AUC0-t) was calculated using a combination of linear and log trapezoidal summations. The total plasma clearance (CLTp), steady-state volume of distribution (Vss), apparent elimination half-life (t½) and mean residence time (MRT) were estimated after IV administration. Estimation of T½ was made using a minimum of 3 time points with quantifiable concentrations.
For non-prodrugs, the absolute oral bioavailability F was estimated as the ratio of dose-normalized AUC values following oral and IV doses.
In case of prodrugs (e.g., Examples 2 and 5), absolute bioavailability F was estimated as the ratio of dose-normalized AUC values of parent (Example 1) upon oral administration of prodrugs (Examples 2 and 5) and IV infusion of parent (Example 1).

pCK2 motif = experiment: In vivo pharmacodynamic study, pCK2 motif inhibition in SNU-C1 (colon) xenograft tumor model; parameters: species or system mice; details: for % inh. of p-CK2 at 24th hour: oral gavage, SNU-C1 (colon) xenograft in mice
Protocol: pCK2 motif is a putative cellular substrate of CK2 with molecular weight of ˜60 kDa.
To determine extent of pCK2 motif inhibition by test compounds in vivo, SNU-C1 colon tumor cells were inoculated into female BALB/c athymic mice and propagated as subcutaneous xenografts. The dosing solutions of the compound or control were administered to mice with tumors reaching ˜500 mm by oral gavage at the indicated dose levels and schedules. Tumors were collected from control and treated mice at the indicated times and immediately frozen in liquid nitrogen. Frozen tumors were thawed on ice in 5 volumes of TTG buffer (Tris-HCl, pH 7.9, 10% glycerol, 0.02% Tween-20). Tumors were homogenized using a Qiagen TissueLyser II (3×1 min (1/30S)) in Qiagen Tissulyser tubes containing steel beads. Tumor homogenates were clarified by microcentrifugation at 13000 rpm for 10 min. Western blot analysis was performed using 60 μg of protein per lane on 4-15% BioRad SDS-PAGE gels. Blots were probed with an anti-pCK2 motif antibody (mAb #8738 Cell Signaling Technology) and anti-Actin antibody. The pCK2 motif antibody is a purified […] antibody developed by immunizing mice with a degenerate mixture of peptides corresponding to the consesnus phorylation site used by CK2. The intensity of the pCK2 motif band was measured on images obtained from the Licor Odyssey instrument. % pCK2 remaining at each dose was calculated relative to the average intensity of bands from untreated, control mouse tumors.

CK2A2 = CK2A2 (Homo sapiens (Human), UniProt P19784); experiment: CK2 kinase assay (CK2A2); assay type: biochemical; details: recombinant CK2A2
Chain of CK2A2 (P19784 whole entry): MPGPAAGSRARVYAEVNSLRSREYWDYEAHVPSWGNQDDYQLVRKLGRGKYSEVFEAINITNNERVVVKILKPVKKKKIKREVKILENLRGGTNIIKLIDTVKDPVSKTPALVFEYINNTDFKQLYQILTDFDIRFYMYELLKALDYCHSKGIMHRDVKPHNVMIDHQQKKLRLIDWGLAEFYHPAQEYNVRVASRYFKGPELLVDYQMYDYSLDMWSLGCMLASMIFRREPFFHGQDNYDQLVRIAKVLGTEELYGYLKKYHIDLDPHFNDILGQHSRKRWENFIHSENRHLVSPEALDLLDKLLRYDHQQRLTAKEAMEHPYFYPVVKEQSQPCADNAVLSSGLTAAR
Protocol: (§1) The effectiveness of compounds of the present invention as inhibitors of protein kinases can be readily tested by assays known to those skilled in the art. For example, in vitro protein kinase assays may be conducted with a relevant purified protein kinase and an appropriate synthetic substrate to determine the inhibitory activity of the compounds. […] Reaction mixtures were incubated at 30° C. for 1 hour, and reaction products were captured by binding to phosphocellulose (P81) filter plates. Incorporation of radioactive phosphate into the peptide substrate was determined by liquid scintillation counting. The potency of compounds in inhibiting CK2 is expressed as IC50, defined as the concentrations of compounds required to inhibit the enzymatic activity by 50%.
(§2) The inhibitory activity of the instant compounds may also be measured by recombinant CK2 holoenzyme kinase assays. The assays were performed in U-bottom 384-well plates. The final assay volume was 30 μl prepared from 15 μl additions of enzyme and substrates (fluoresceinated peptide FL-RRRADDSDDDDD-NH2 and ATP) and test compounds in assay buffer (20 mM HEPES pH 7.4, 10 mM MgCl2, 100 mM NaCl, 0.015% Brij35 and 0.25 mM DTT). The reaction was initiated by the combination of bacterially expressed, CK2 α/β or CK2 α′/β holoenzyme with substrates and test compounds. The reaction was incubated at room temperature for 60 minutes and terminated by adding 30 μl of 35 mM EDTA to each sample. The reaction mixture was analyzed on the Caliper LABCHIP® 3000 (Caliper, Hopkinton, Mass.) by electrophoretic separation of the fluorescent substrate and phosphorylated product. Inhibition data were calculated by comparison to no enzyme control reactions for 100% inhibition and vehicle-only reactions for 0% inhibition. The final concentration of reagents in the CK2 α/β assay was 25 μM ATP, 1.5 μM FL-RRRADDSDDDDD-NH2, 50 pM CK2 α/β holoenzyme, and 1.6% DMSO. The final concentration of reagents in the CK2 α′/β assay was 10 μM ATP, 1.5 μM FL-RRRADDSDDDDD-NH2, 100 pM CK2 α′/β holoenzyme, and 1.6% DMSO. Dose response curves were generated to determine the concentration required inhibiting 50% of kinase activity (IC50). Compounds were dissolved at 10 mM in dimethylsulfoxide (DMSO) and evaluated at eleven concentrations. IC50 values were derived by non-linear regression analysis.

[2] = Thermodynamic equilibrium aqueous solubility assay; assay type: physicochemical; details: for solubility at 24 h: aqueous buffer, thermodynamic from solid
Protocol: Standards Preparation: The calibration standard was prepared by accurately weighing 0.5-0.7 mg of sample in 5 ml of methanol. If the material was not fully soluble in methanol, other solvents such as DMSO or mixed solvents were used.
The solution was sonicated and vortexed for ˜30 seconds. The vials were shaken at 300 rpm at room temperature for 24 hrs. The exact incubation time for a specific prodrug was based on the prior aqueous stability data. If the compound was stable in the buffer up to 24 hrs, then the solubility was measured after 24 hrs, otherwise kinetic solubility data was reported. The final saturated solution was then transferred to a 1.5 mL eppendorf tube and centrifuged for ˜2 min. at 10000 rpms. The supernatant from the saturated solution was transferred to a glass HPLC vial and the solubility was analyzed by HPLC using a four point calibration curve.

CK2A1 = CK2A1 (Homo sapiens (Human), UniProt P68400); experiment: CK2 kinase assay (CK2A1); assay type: biochemical; details: recombinant CK2A1
Chain of CK2A1 (P68400 whole entry): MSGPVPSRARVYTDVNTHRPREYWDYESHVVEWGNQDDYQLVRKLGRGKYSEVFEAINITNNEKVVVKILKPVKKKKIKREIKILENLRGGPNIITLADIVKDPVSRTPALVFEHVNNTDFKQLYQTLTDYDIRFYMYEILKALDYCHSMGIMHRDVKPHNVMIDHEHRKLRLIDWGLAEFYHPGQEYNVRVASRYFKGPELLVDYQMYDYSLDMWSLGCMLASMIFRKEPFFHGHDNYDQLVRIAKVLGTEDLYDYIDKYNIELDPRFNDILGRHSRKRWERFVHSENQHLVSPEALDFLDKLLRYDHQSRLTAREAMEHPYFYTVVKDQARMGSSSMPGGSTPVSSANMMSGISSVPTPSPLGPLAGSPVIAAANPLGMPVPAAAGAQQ
Protocol: as §1, §2

[3] = 50 mM potassium phosphate buffer, pH 6.5, 50 mM potassium phosphate, read-out: Solubility pH 6.5
[4] = simulated gastric fluid, pH 1.0, read-out: Solubility pH 1.0
[5] = 50 mM sodium acetate buffer, pH 4.0, 50 mM sodium acetate, read-out: Solubility pH 4.0

| Structure (SMILES) | Oral Bioavailability in Rats, % F [1] [% F] | % inh. of p-CK2 at 24th hour (pCK2 motif; 40 mg/kg BID) [%/40 mg/kg BID] | IC50 (CK2A2) [nM] | bioavailability in rats compared to Example 174 of WO2014011974 (in words) ([1]; rats, oral) | % inh. of p-CK2 at 24th hour (pCK2 motif; 15 mg/kg BID) [%/15 mg/kg BID] | suppression of pCK2 motif levels relative to vehicle control (in words) (pCK2 motif; SNU-C1 xenograft in mice, up to 24 hours) | solubility at 24 h [2, 3] [µg/mL] | solubility at 24 h [2, 4] [µg/mL] | IC50 (CK2A1) [nM] | Prodrug bioavailability in Rats, % F ([1]; rats) [% F] | solubility compared to the parent compound Example 1 (in words) [2] | solubility at 24 h [2, 5] [µg/mL] |
| --- | --- | --- | --- | --- | --- | --- | --- | --- | --- | --- | --- | --- |
| COC(=O)N[C@H]1CCN(c2cc(C#N)cc(Nc3nc(NC4CC4)c4ncc(C#N)n4n3)c2Cl)C[C@@H]1O [174 (WO2014011974), reference compound] | 8 | 33 | – | – | – | – | – | – | – | – | – | – |
| CCNc1nc(Nc2cc(C#N)cc(N3CCN([C@@H](C)C(N)=O)CC3)c2Cl)nn2c(C#N)cnc12 [Example 1, (S)-2-(4-(2-chloro-5-cyano-3-((7-cyano-4-(ethylamino)imidazo[2,1-f][1,2,4]triazin-2-yl)amino)phenyl)piperazin-1-yl)propanamide] | 68 | – | < 10 | marked improvement in bioavailability | 91 | significantly suppressed | < 1 | 22 (≈ 44.5 µM) | < 10 | – | – | – |
| CCNc1nc(N(C(=O)OCOC(=O)Cc2ccc(OP(=O)(O)O)cc2)c2cc(C#N)cc(N3CCN([C@@H](C)C(N)=O)CC3)c2Cl)nn2c(C#N)cnc12 [Example 2, (S)-(((3-(4-(1-amino-1-oxopropan-2-yl)piperazin-1-yl)-2-chloro-5-cyanophenyl)(7-cyano-4-(ethylamino)imidazo[2,1-f][1,2,4]triazin-2-yl)carbamoyl)oxy)methyl 2-(4-(phosphonooxy)phenyl)acetate] | – | – | 10 to 100 | – | – | – | 835 (≈ 1070 µM) | 242 (≈ 309 µM) | 100 to 1000 | 40 | superior solubility | 124 (≈ 159 µM) |
| CCNc1nc(N(C(=O)OCOC(=O)/C=C/C(=O)O)c2cc(C#N)cc(N3CCN([C@@H](C)C(N)=O)CC3)c2Cl)nn2c(C#N)cnc12 [Example 3, (S,E)-4-((((3-(4-(1-amino-1-oxopropan-2-yl)piperazin-1-yl)-2-chloro-5-cyanophenyl)(7-cyano-4-(ethylamino)imidazo[2,1-f][1,2,4]triazin-2-yl)carbamoyl)oxy)methoxy)-4-oxobut-2-enoic Acid] | – | – | 10 to 100 | – | – | – | – | – | 100 to 1000 | – | – | – |
| CCNc1nc(N(C(=O)OCOC(=O)CC(C)(C)COP(=O)(O)O)c2cc(C#N)cc(N3CCN([C@@H](C)C(N)=O)CC3)c2Cl)nn2c(C#N)cnc12 [Example 4, (S)-(((3-(4-(1-amino-1-oxopropan-2-yl)piperazin-1-yl)-2-chloro-5-cyanophenyl)(7-cyano-4-(ethylamino)imidazo[2,1-f][1,2,4]triazin-2-yl)carbamoyl)oxy)methyl 3,3-dimethyl-4-(phosphonooxy)butanoate] | – | – | < 10 | – | – | – | – | – | 10 to 100 | – | – | – |
| CCNc1nc(N(C(=O)OCOC(=O)CC(C)(C)c2c(C)cc(C)cc2OP(=O)(O)O)c2cc(C#N)cc(N3CCN([C@@H](C)C(N)=O)CC3)c2Cl)nn2c(C#N)cnc12 [Example 5, (S)-(((3-(4-(1-amino-1-oxopropan-2-yl)piperazin-1-yl)-2-chloro-5-cyanophenyl)(7-cyano-4-(ethylamino)imidazo[2,1-f][1,2,4]triazin-2-yl)carbamoyl)oxy)methyl 3-(2,4-dimethyl-6-(phosphonooxy)phenyl)-3-methylbutanoate] | – | – | 10 to 100 | – | – | – | 1340 (≈ 1580 µM) | 253 (≈ 297 µM) | 100 to 1000 | 88 | superior solubility | 160 (≈ 188 µM) |
